According to PMC10761933, “Acquired and intrinsic resistance to vemurafenib in BRAF^V600E ‐driven melanoma brain metastases” (FEBS Open Bio, 2023):
Like-named read-outs stand apart in the source and are kept apart here.

Tests used:
[1] = tested on: subcutaneous A375 tumors; assay: Efficacy against subcutaneous A375 tumors (caliper); type: in vivo; details: 25 mg·kg^−1 in WT mice and 10 mg·kg^−1 in Abcb1a/b;Abcg2−/− mice, 13 consecutive days
Description: For subcutaneous xenograft models, 30 μL of cell suspension containing 3 × 10^6 A375 cells was injected into both flanks of FVB WT and Abcb1a/b;Abcg2 ^ −/− nude mice. For xenograft MBM models, stereotactic intracranial injections (A375 and Mel57) or intracarotid injections (K1735) of melanoma cells were performed as described previously. For intracranial injections, FVB nude mice were injected intracranially with 2 μL of A375 or Mel57 cell suspension containing 1 × 10^5 cells 2 mm lateral, 1 mm anterior, and 3 mm ventral from the bregma. For intracarotid injections, 1 × 10^5 cells in 100 μL HBSS were injected in the left common carotid artery of C3H/HeN mice. Tumor growth was measured by bioluminescence imaging (BLI) for intracranial tumors and by caliper for subcutaneous tumors. The volume of subcutaneous tumors was calculated in mm^3 using the modified ellipsoid formula (volume = 0.5 × length × width^2). […] Animals were stratified into treatment groups to achieve a similar mean bioluminescence reading within each cohort. […] All subsequent measurements were recorded relative to this first measurement and converted to their log values. Mean ± standard error (SE) values were calculated and plotted in graphs.
For the subcutaneous tumor model, therapy was initiated 2 weeks after implantation, when the tumor volume exceeded 40 mm^3. […] Tumor development was assessed by caliper twice a week. […]

[2] = set-up: method as in PMID 25933211; details: clinical study; cited from earlier work
[3] = tested on: intracranial A375 tumors; assay: Efficacy against intracranial A375 melanoma tumors (BLI, survival); type: in vivo, mice
Description: For subcutaneous xenograft models, 30 μL of cell suspension containing 3 × 10^6 A375 cells was injected into both flanks of FVB WT and Abcb1a/b;Abcg2 ^ −/− nude mice. For xenograft MBM models, stereotactic intracranial injections (A375 and Mel57) or intracarotid injections (K1735) of melanoma cells were performed as described previously. For intracranial injections, FVB nude mice were injected intracranially with 2 μL of A375 or Mel57 cell suspension containing 1 × 10^5 cells 2 mm lateral, 1 mm anterior, and 3 mm ventral from the bregma. For intracarotid injections, 1 × 10^5 cells in 100 μL HBSS were injected in the left common carotid artery of C3H/HeN mice. Tumor growth was measured by bioluminescence imaging (BLI) for intracranial tumors and by caliper for subcutaneous tumors. The volume of subcutaneous tumors was calculated in mm^3 using the modified ellipsoid formula (volume = 0.5 × length × width^2). Bioluminescence images were acquired following i.p. D‐luciferin (150 mg·kg^−1; Promega) using an IVIS 200 or IVIS Spectrum system with LIVING IMAGE software v4.5 (both PerkinElmer, Waltham, MA, USA). Animals were stratified into treatment groups to achieve a similar mean bioluminescence reading within each cohort. The bioluminescence intensity of each individual animal on the day of the start of treatment (Day 0) was arbitrarily set at 100%. All subsequent measurements were recorded relative to this first measurement and converted to their log values. Mean ± standard error (SE) values were calculated and plotted in graphs.
(§1) For the subcutaneous tumor model, therapy was initiated 2 weeks after implantation, when the tumor volume exceeded 40 mm^3. FVB WT and Abcb1a/b;Abcg2 ^ −/− nude mice (n = 8) received 25 and 10 mg·kg^−1 of vemurafenib daily, respectively. Control mice (n = 8) received vehicle. Tumor development was assessed by caliper twice a week. For the intracranial tumor model, treatment was started about 2 weeks after intracranial injection of tumor cells, when full‐blown tumors were present in all animals. WT and Abcb1a/b;Abcg2 ^ −/− nude mice received vehicle, 25 mg·kg^−1 vemurafenib, 10 mg·kg^−1 vemurafenib plus 100 mg·kg^−1 elacridar, or 10 mg·kg^−1 vemurafenib once daily for 10 consecutive days or in a 5 days on/2 days off/5 days on schedule, as indicated in the relevant figure panels. Tumor growth was monitored by BLI every 4 or 5 days. Mice were weighed daily weighed examined for abnormalities. The mice were humanely sacrificed based on BLI results or when weight loss exceeded 20% of the initial body weight.

[4] = Body weight during efficacy studies; type: in vivo, mice
Description: as §1

[5] = Oral vemurafenib plasma pharmacokinetics in tumor‐free WT and Abcb1a/b;Abcg2−/− FVB nude mice; type: in vivo; details: mean ± SD; for Cmax / Tmax / half-life: FVB nude, mouse, plasma, po; for half-life: read-out: t 1/2 (elimination half‐life) (converted)
Description: To establish vemurafenib plasma kinetics, tumor‐free FVB WT, and Abcb1a/b;Abcg2 ^ −/− nude mice received vemurafenib orally (p.o.) by gavage at indicated doses. Elacridar (100 mg·kg^−1) was administrated p.o. by gavage 4 h before vemurafenib. Blood was sampled from the tail vein at 15 min, 1, 2, 4, 8, and 24 h after the administration. The plasma was obtained by centrifugation (5 min, 2000 g, 4 °C). Vemurafenib was extracted from plasma by diethyl ether liquid–liquid extraction. Extracts were dried using a Savant SpeedVac Concentrator (Thermo Fisher Scientific, Waltham, MA, USA), reconstituted in MeCN : water (30 : 70), and subjected to liquid chromatography/tandem mass spectrometry (LC/MS–MS) analysis. Vemurafenib‐^13C6 was used as an internal standard.
The LC–MS/MS system consisted of an API 3000 mass spectrometer (Sciex, Framingham, MA, USA) coupled to an UltiMate 3000 LC System (Dionex, Sunnyvale, CA, USA). Samples were separated using a ZORBAX Extend‐C18 column (Agilent, Santa Clara, CA, USA), preceded by a Securityguard C18 precolumn (Phenomenex, Utrecht, the Netherlands). Elution was done using a mixture of mobile phase A (0.1% formic acid in water (v/v)) and mobile phase B (methanol) in a 5 min gradient from 20% to 95% B, followed by 95% B that was maintained for 3 min and then re‐equilibrated at 20% B. Multiple reaction monitoring parameters were 490.2/383.1 (vemurafenib) and 496.2/389.1 (vemurafenib‐^13C6). System control and data analysis were done using ANALYST ® 1.6.2 software (AB Sciex, Foster City, CA, USA).
Pharmacokinetic parameters were calculated with PKSOLVER [30]. All comparisons involving more than two groups were analyzed by one‐way ANOVA followed by Bonferroni post hoc tests. Differences in fractions of ABC transporter‐expressing cells between brain and skin lesions were compared using the Binomial test in which the skin fraction was considered as expected and the brain fraction was considered as observed. Correlations were determined using simple linear regression. Kaplan–Meier curves were drawn using GRAPHPAD PRISM v7 (GraphPad Software, La Jolla, CA, USA), and statistically significant survival differences were determined using the log‐rank test. Statistical significance was accepted in all tests when P < 0.05.

[6] = Abcb1a/b;Abcg2−/− mice, 10 mg·kg^−1 p.o.
[7] = Abcb1a/b;Abcg2−/− mice, 25 mg·kg^−1 p.o.
[8] = 10 mg/kg, Abcb1a/b;Abcg2−/− mice, 10 mg·kg^−1 p.o.
[9] = 10 mg/kg, WT mice, 10 mg·kg^−1 p.o. + elacridar 100 mg·kg^−1 p.o. 4 h before
[10] = 25 mg/kg, Abcb1a/b;Abcg2−/− mice, 25 mg·kg^−1 p.o.
[11] = 25 mg/kg, WT mice, 25 mg·kg^−1 p.o.
[12] = WT mice, 10 mg·kg^−1 p.o. + elacridar 100 mg·kg^−1 p.o. 4 h before

## CCCS(=O)(=O)Nc1ccc(F)c(C(=O)c2c[nH]c3ncc(-c4ccc(Cl)cc4)cc23)c1F [vemurafenib]
[1]
  efficacy against subcutaneous A375 tumors, WT vs Abcb1a/b;Abcg2−/− mice: equally effective
[2]
  concentration in cerebrospinal fluid (CSF) as share of the plasma concentration: < 1%
[3]; Abcb1a/b;Abcg2−/− mice, 10 mg·kg^−1 q.d. × 10d
  survival: not significantly extended
[3]; Abcb1a/b;Abcg2−/− mice, 10 mg·kg^−1 q.d. × 10d, first 3 days of treatment, regrowth under therapy afterwards
  tumor growth of intracranial A375 tumors: induced tumor regression
[3]; Abcb1a/b;Abcg2−/− mice, two cycles of 5 days of 25 mg·kg^−1 daily oral
  tumor growth of intracranial A375 tumors: induced regression and subsequent tumor stasis
[3]; Abcb1a/b;Abcg2−/− mice, two cycles of 5 days of 25 mg·kg^−1 daily oral, vs vehicle
  survival: a survival difference was already established
[3]; WT mice, 10 mg·kg^−1 vemurafenib + 100 mg·kg^−1 elacridar
  antitumor efficacy against intracranial A375 tumors with pharmacological P‐gp/BCRP inhibition vs Abcb1a/b;Abcg2−/− mice at same dose: less efficacious
[3]; WT mice, 25 mg·kg^−1 q.d. × 10d
  tumor growth of intracranial A375 tumors: only reduced A375 growth speed
[4]; Abcb1a/b;Abcg2−/− mice with intracranial A375, two cycles of 5 days of 25 mg·kg^−1 daily oral
  body weight: without affecting body weight
[4]; intracranial A375, any treatment regimen (WT 25, WT 10 + elacridar, Abcb1a/b;Abcg2−/− 10 mg·kg^−1)
  body weight: could not observe any weight loss
[4]; subcutaneous A375, 25 mg·kg^−1 in WT and 10 mg·kg^−1 in Abcb1a/b;Abcg2−/− mice, 13 days
  body weight: did not result in body weight loss
[5]; [6]
  AUCplasma 0–4 h: 56 ± 7.2 µg·mL/h
  AUCplasma 0–24 h: 230 ± 35 µg·mL/h
  AUCplasma 0–∞: 250 ± 49 µg·mL/h
  CL/F (apparent clearance after oral administration): 0.04 ± 0.006 L·kg/h
[5]; [7]
  AUCplasma 0–4 h: 140 ± 16 µg·mL/h
  AUCplasma 0–24 h: 530 ± 68 µg·mL/h
  AUCplasma 0–∞: 610 ± 84 µg·mL/h
  CL/F (apparent clearance after oral administration): 0.04 ± 0.006 L·kg/h
[5]; [8]
  Cmax: 17000 ± 1700 ng/mL
  Tmax: 2.8 ± 1.1 h
  half-life: 6.7 ± 1.4 h
[5]; [9]
  Tmax: 3.6 ± 0.9 h
  half-life: 5.8 ± 0.6 h
  Cmax: 12000 ± 1700 ng/mL
[5]; [10]
  Cmax: 41000 ± 4500 ng/mL
  Tmax: 1.9 ± 0.9 h
  half-life: 8.5 ± 1.2 h
[5]; [11]
  Cmax: 42000 ± 7700 ng/mL
  Tmax: 2.6 ± 1.3 h
  half-life: 2.1 ± 0.2 h
[5]; [12]
  AUCplasma 0–4 h: 38 ± 5.7 µg·mL/h
  AUCplasma 0–24 h: 180 ± 24 µg·mL/h
  AUCplasma 0–∞: 190 ± 23 µg·mL/h
  CL/F (apparent clearance after oral administration): 0.05 ± 0.006 L·kg/h
[5]; WT mice, 25 mg·kg^−1 p.o.
  AUCplasma 0–4 h: 147 ± 28 µg·mL/h
  AUCplasma 0–24 h: 390 ± 98 µg·mL/h
  AUCplasma 0–∞: 390 ± 99 µg·mL/h
  CL/F (apparent clearance after oral administration): 0.07 ± 0.017 L·kg/h
